Common to all, as to assay: relative viability (nuclei count vs DMSO), 5 days (fraction); higher = more cells survive
Compound in the experiment “NPK76-II-72-1 + OSI-027”: CC1CC(=O)N(C2=CN=C(N=C2N1C3CCCC3)NC4=C(C=C(C=C4)C(=O)NC5CCN(CC5)C)OC)C [NPK76-II-72-1] + COc1cccc2cc(-c3nc([C@H]4CC[C@H](C(=O)O)CC4)n4ncnc(N)c34)[nH]c12 [OSI-027] (partner 0.5 µM)
A digest of the protocol:
(§1)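 Values are medians from duplicate plates. Each reflects relative viability, defined as the nuclei count of treated wells over that of vehicle wells. Lung cancer cell lines in 1536-well plates were pin-tool dosed one day after seeding with one drug alone or with a fixed anchor-drug dose plus five library-drug doses (not always all listed) in √10 steps, then fixed, stained and imaged at 4× after 5 days.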

Compound in the experiment “BI-2536 + Alpelisib”: CC[C@@H]1C(=O)N(C)c2cnc(Nc3ccc(C(=O)NC4CCN(C)CC4)cc3OC)nc2N1C1CCCC1 [BI-2536] + Cc1nc(NC(=O)N2CCC[C@H]2C(N)=O)sc1-c1ccnc(C(C)(C)C(F)(F)F)c1 [Alpelisib] (partner 2 µM)
The gist of the method: as §1

Compound in the experiment “NPK76-II-72-1 + AZD7762”: CC1CC(=O)N(C2=CN=C(N=C2N1C3CCCC3)NC4=C(C=C(C=C4)C(=O)NC5CCN(CC5)C)OC)C [NPK76-II-72-1] + NC(=O)Nc1cc(-c2cccc(F)c2)sc1C(=O)N[C@H]1CCCNC1 [AZD7762] (partner 0.2 µM)
A digest of the protocol: as §1

Compound in experiment [1]: CC1CC(=O)N(C2=CN=C(N=C2N1C3CCCC3)NC4=C(C=C(C=C4)C(=O)NC5CCN(CC5)C)OC)C [NPK76-II-72-1] + Cc1cc(Nc2cc(N3CCN(C)CC3)nc(Sc3ccc(NC(=O)C4CC4)cc3)n2)n[nH]1 [Tozasertib] (partner 0.1 µM)
A digest of the protocol: as §1

For LU99A, the relative viability with NPK76-II-72-1 + OSI-027 (first compound 0.01 µM) amounted to 0.309; in the experiment with NPK76-II-72-1 + OSI-027 (first compound 0.03162 µM), 0.285; in the experiment with NPK76-II-72-1 + OSI-027 (first compound 0.1 µM) it was 0.241; with NPK76-II-72-1 + OSI-027 (first compound 0.3162 µM), 0.278; with NPK76-II-72-1 + OSI-027 (first compound 1 µM), 0.299; with BI-2536 + Alpelisib (first compound 0.01 µM) it was 0.53. Besides, the relative viability with BI-2536 + Alpelisib (first compound 0.03162 µM) is 0.515; with BI-2536 + Alpelisib (first compound 0.1 µM) it was 0.209; with BI-2536 + Alpelisib (first compound 0.3162 µM), 0.146; in the experiment with BI-2536 + Alpelisib (first compound 1 µM), 0.179; in the experiment with NPK76-II-72-1 + AZD7762 (first compound 0.01 µM) it was 0.425; in the experiment with NPK76-II-72-1 + AZD7762 (first compound 0.03162 µM) it was 0.298. Also, the relative viability is 0.503 in the experiment with NPK76-II-72-1 + AZD7762 (first compound 0.1 µM); 0.248 with NPK76-II-72-1 + AZD7762 (first compound 0.3162 µM); 0.402 with NPK76-II-72-1 + AZD7762 (first compound 1 µM); 0.318 in experiment [1] (first compound 0.01 µM); 0.309 in experiment [1] (first compound 0.03162 µM); 0.309 in experiment [1] (first compound 0.1 µM). In addition, the results for the relative viability in experiment [1] (first compound 0.3162 µM) and in experiment [1] (first compound 1 µM) were 0.271 and 0.283, respectively.
In the case of SW 1573, the relative viability in the experiment with NPK76-II-72-1 + OSI-027 (first compound 0.01 µM) was 0.704; with NPK76-II-72-1 + OSI-027 (first compound 0.03162 µM), 0.65; in the experiment with NPK76-II-72-1 + OSI-027 (first compound 0.1 µM), 0.603; in the experiment with NPK76-II-72-1 + OSI-027 (first compound 0.3162 µM), 0.599; with NPK76-II-72-1 + OSI-027 (first compound 1 µM) it was 0.664; with BI-2536 + Alpelisib (first compound 0.01 µM), 0.821. Also, the relative viability with BI-2536 + Alpelisib (first compound 0.03162 µM) turned out to be 0.842; in the experiment with BI-2536 + Alpelisib (first compound 0.1 µM) it was 0.791; in the experiment with BI-2536 + Alpelisib (first compound 0.3162 µM), 0.162; with BI-2536 + Alpelisib (first compound 1 µM) it was 0.123; in experiment [1] (first compound 0.01 µM) it was 0.168; in experiment [1] (first compound 0.03162 µM) it was 0.208. Moreover, the values for the relative viability in experiment [1] (first compound 0.1 µM), in experiment [1] (first compound 0.3162 µM) and in experiment [1] (first compound 1 µM) were 0.238, 0.265 and 0.21, respectively.
Take NCI-H2347: the relative viability with NPK76-II-72-1 + OSI-027 (first compound 0.01 µM) was 0.407; with NPK76-II-72-1 + OSI-027 (first compound 0.03162 µM), 0.502; with NPK76-II-72-1 + OSI-027 (first compound 0.1 µM), 0.466; with NPK76-II-72-1 + OSI-027 (first compound 0.3162 µM) it was 0.366; with NPK76-II-72-1 + OSI-027 (first compound 1 µM) it was 0.274; with BI-2536 + Alpelisib (first compound 0.01 µM), 1.03. Besides, the relative viability amounted to 0.923 with BI-2536 + Alpelisib (first compound 0.03162 µM); 0.89 in the experiment with BI-2536 + Alpelisib (first compound 0.1 µM); 0.448 with BI-2536 + Alpelisib (first compound 0.3162 µM); 0.497 with BI-2536 + Alpelisib (first compound 1 µM); 0.805 with NPK76-II-72-1 + AZD7762 (first compound 0.01 µM); 0.755 with NPK76-II-72-1 + AZD7762 (first compound 0.03162 µM). Moreover, the relative viability was 0.646 in the experiment with NPK76-II-72-1 + AZD7762 (first compound 0.1 µM); 0.704 with NPK76-II-72-1 + AZD7762 (first compound 0.3162 µM); 0.883 in the experiment with NPK76-II-72-1 + AZD7762 (first compound 1 µM); 0.405 in experiment [1] (first compound 0.01 µM); 0.542 in experiment [1] (first compound 0.03162 µM); 0.507 in experiment [1] (first compound 0.1 µM). The relative viability in experiment [1] (first compound 0.3162 µM) is 0.589; in experiment [1] (first compound 1 µM) it was 0.638.
Turning to NCI-H2009, the relative viability amounted to 0.659 in the experiment with NPK76-II-72-1 + OSI-027 (first compound 0.01 µM); 0.671 with NPK76-II-72-1 + OSI-027 (first compound 0.03162 µM); 0.596 in the experiment with NPK76-II-72-1 + OSI-027 (first compound 0.1 µM); 0.547 with NPK76-II-72-1 + OSI-027 (first compound 0.3162 µM); 0.778 with NPK76-II-72-1 + OSI-027 (first compound 1 µM); 1.15 with BI-2536 + Alpelisib (first compound 0.01 µM). For the same cell line, the relative viability turned out to be 1.01 in the experiment with BI-2536 + Alpelisib (first compound 0.03162 µM); 0.581 with BI-2536 + Alpelisib (first compound 0.1 µM); 0.236 with BI-2536 + Alpelisib (first compound 0.3162 µM); 0.191 with BI-2536 + Alpelisib (first compound 1 µM); 0.707 in experiment [1] (first compound 0.01 µM); 0.766 in experiment [1] (first compound 0.03162 µM). Also, the relative viability in experiment [1] (first compound 0.1 µM) is 0.807; in experiment [1] (first compound 0.3162 µM), 0.669; in experiment [1] (first compound 1 µM) it was 0.841.

The record behind these values is the supplement of paper PMC10307832.
